These results are taken from PMC11062899, “De novo development of small cyclic peptides that are orally bioavailable” (Nature Chemical Biology, 2023).

Square brackets hold non-standard residues; d marks the D form. Peptide text beside a SMILES is read from it. NMeY = CN[C@@H](Cc1ccc(O)cc1)C(=O)O; NMeL = CN[C@@H](CC(C)C)C(=O)O; dNMeL = CN[C@H](CC(C)C)C(=O)O

Series [1] concerns the target T1, porcine pepsin (Sus scrofa, UniProt P00791).
T1 construct: 0.32 g of porcine pepsin (Sigma-Aldrich, P7125) was dissolved under gentle agitation; purchased Sigma-Aldrich P7125
Description: Peptide stability in simulated gastric fluid (SGF). Also noted: remaining at 8 h: dose or concentration left out as unconfirmed. The format is in vitro ADME. Particulars: pig, simulated gastric fluid (SGF) with porcine pepsin; 8 h, 37 °C, pH 1.2; read-out: Proteolytic stability: SGF (8 h) % remaining. The procedure, abridged: (§1)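 Peptide from a 1 mM DMSO stock was added to fluid pre-warmed at 37 °C. SGF was pH 1.2 NaCl with porcine pepsin (0.32 g per 100 ml), and SIF was pH 6.8 potassium phosphate with porcine pancreatin (1 g per 100 ml). Supernatant peptide was quantified by LC–MS, with residual expressed as T1/T0.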

The subject of series [2] is porcine pancreatin. Description: Peptide stability in simulated intestinal fluid (SIF). The format is in vitro ADME. Also noted: remaining at 8 h: dose or concentration left out as unconfirmed. Particulars: pig, simulated intestinal fluid (SIF) with porcine pancreatin; 8 h, 37 °C, pH 6.8; read-out: Proteolytic stability: SIF (8 h) % remaining. Summed up: as §1
A short description of series [3]: in vivo. Particulars: male, Wistar Han, rat. How it is done: Male Wistar Han rats (250–350 g) obtained at an age of 9–10 weeks from Charles River Laboratories were used for the studies and kept in housing groups of two or three. Experiments were performed at the age of 10–11 weeks. Intravenous (i.v.) administrations were carried out using tail vein injections. Peptides were dissolved in pure DMSO and diluted with 5% Cremophor EL in water (5% DMSO final) at a concentration of 0.5 mg ml^−1. I.v. administration was carried out at a dose of 1 mg kg^−1 body weight via the left lateral tail vein of rats (n = 3) using an Insyte-W 24 G × 0.75 in. (0.7 mm × 19 mm) temporary peripheral venous catheter (BD Biosciences, 381312). Before injecting the peptide solution, a correct placement of the catheter was confirmed by an apparent reflux of blood through the catheter. Orally (p.o.) administrated peptides were dissolved in DMSO and diluted with 10% Cremophor EL in water (5% DMSO final) at a concentration of 1 mg ml^−1 and administrated by oral gavage to rats (n = 3) at a dose of 10 mg kg^−1. Rats used for oral administration were fasted overnight for 14 h and provided access to food again 2 h after administration, whereas access to water was not restricted throughout the whole experimental procedure. Volumes of 100 μl of blood samples were collected via the right lateral tail vein at different timepoints after i.v. or p.o. administration into heparinized tubes (Sarstedt, 20.1282); the samples were stored on ice for up to 4 h; and plasma was obtained by centrifugation at 2,000g for 5 min at 4 °C. A volume of 40 μl of plasma was added to 120 μl of an acetonitrile:water (9:1) solution containing an internal standard (5 μg ml^−1). Samples were vortexed for 10 s and sonicated for 10 min, and precipitated plasma proteins were pelleted by centrifugation at 16,000g for 15 min at 4 °C. Volumes of 120 μl of supernatant were transferred to a new tube, and solvent was evaporated in a rotary vacuum concentrator (RVC 2–33 CDplus IR, Christ) for 2 h at 40 °C. Dried residues were dissolved in 20 μl of a water:acetonitrile (7:3) (v/v) solution, centrifuged at 14,000g for 5 min and analyzed by LC–MS. Peptides were quantified by extracting ion chromatograms corresponding to their respective mass, integrating the area under the peptide peak and calculating the concentrations by normalization to a calibration curve. Calibration curves were prepared by analyzing spiked samples of blood or plasma with known concentrations of peptide. The absolute oral bioavailability was calculated using equation (6).6 F=AUCp.o./AUCi.v.×Dosei.v./Dosep.o.×100 where AUCp.o. and AUCi.v. are calculated from a plasma concentration versus time curve using the linear trapezoidal rule, and Dosei.v. and Dosep.o. are the intravenously or orally administrated amount of peptide in mg kg^−1.

Series [4] can be described thus: Metabolic stability in rat liver microsomes (RLMs). Conditions: rat liver microsomes; for half-life at 10 μM / microsomal CLint at 10 μM: rat. In general terms: Microsomes from liver hold many membrane-bound enzymes, among them those of drug oxidation.
The conditions of series [5]: cited from earlier work.
Details of series [6]: method as in PMID 19696042. Particulars: cited from earlier work.
The mark [7] stands for this setting: pH 7.4, Metabolic stability: Half life T1/2 (min), RLMs, mean and SD, three measurements.
Where [8] appears, read: pH 7.4, Metabolic stability: RLM CL (ul/min/mg), RLMs, mean and SD, three measurements.

T1 sequence (P00791 60-385): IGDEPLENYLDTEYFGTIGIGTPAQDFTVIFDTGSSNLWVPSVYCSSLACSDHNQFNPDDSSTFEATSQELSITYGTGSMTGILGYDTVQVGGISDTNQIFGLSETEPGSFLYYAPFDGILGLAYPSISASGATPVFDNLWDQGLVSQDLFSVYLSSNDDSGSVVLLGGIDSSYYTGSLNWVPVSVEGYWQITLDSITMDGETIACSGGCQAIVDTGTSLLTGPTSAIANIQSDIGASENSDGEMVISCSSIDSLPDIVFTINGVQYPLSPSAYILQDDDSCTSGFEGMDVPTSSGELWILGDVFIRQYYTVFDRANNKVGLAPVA

Regarding `CC(C)C[C@@H]1NC(=O)[C@H](Cc2ccc(O)cc2)N(C)C(=O)[C@H]2CCCN2C(=O)[C@H](CC(C)C)NC(=O)[C@H](CC(C)C)N(C)C(=O)[C@@H](CC(C)C)N(C)C1=O` [1NMe3, reference compound] (cyclo(L[dNMeL][NMeL]L[dP][NMeY])), the fraction remaining – broadly, the share of the starting amount still present when the sample was taken – at 8 h is 93 ± 12% in series [1] and 98 ± 6% in series [2]. For the same molecule, in series [3], the bioavailability (in general, dose-corrected exposure relative to a reference, in per cent) turned out to be 27 ± 4%. Besides, the half-life (commonly how long it takes for the measured level to halve) in series [3] (iv) is 110 min. This molecule showed a half-life at 10 μM in series [4] (setting [7]) of 193 ± 42 min. Also, the microsomal CLint (commonly the rate of metabolic loss divided by the concentration) at 10 μM in series [4] (setting [8]) is 7.6 ± 1.9 µL/min/mg.
With `COc1ccc([C@@H]2Sc3ccccc3N(CCN(C)C)C(=O)[C@@H]2OC(C)=O)cc1` [Diltiazem, diltiazem, reference compound], the “metabolic clearance in humans” value in series [5] is given as “around 15 ml min^−1 kg^−1”. Further, in series [4] (individual replicates R1-R3), the “Half Life” value is on record as 12.36 min. In series [4] (individual replicates R1-R3, incubation volume 400 ul, protein 0.5 mg/ml), the “RLM CL” value came out at 112.14 ul/min/mg protein. The half-life at 10 μM in series [4] (pH 7.4, Half Life Mean, mean of R1-R3) worked out at 13.4 min; in series [4] (pH 7.4, Half Life, individual replicates R1-R3) it was 14.9 min; in series [4] (setting [7]), 13.4 ± 1.1 min. The microsomal CLint at 10 μM came to 104 ± 8 µL/min/mg in series [4] (setting [8]); 104 µL/min/mg in series [4] (pH 7.4, RLM CL Mean, mean of R1-R3); 93 µL/min/mg in series [4] (pH 7.4, RLM CL, individual replicates R1-R3, incubation volume 400 ul, protein 0.5 mg/ml).
Regarding `CCCCCCOC(=O)NC(=N)c1ccc(NCc2nc3cc(C(=O)N(CCC(=O)OCC)c4ccccn4)ccc3n2C)cc1` [dabigatran etexilate], the oral availability in series [6] is recorded as 6.5%.
